Results from ChEMBL document CHEMBL4346711, “Discovery of coumarin Mannich base derivatives as multifunctional agents against monoamine oxidase B and neuroinflammation for the treatment of Parkinson's disease” (Eur J Med Chem, 2019).
Calls of active or inactive are those of the source. The rule behind the calls is not given here.

Legend:
[1] = target: T1, Amine oxidase [flavin-containing] A (Homo sapiens, UniProt P21397); assay: Inhibition of recombinant human MAO-A expressed in baculovirus infected BTI insect cells using p-tyramine as substrate preincubated for 60 mins followed by substrate addition and measured after 30 mins by horse-radish peroxidase-coupled amplex red reagent-based fluorescence spectrophotometric method
T1 sequence (P21397 whole entry): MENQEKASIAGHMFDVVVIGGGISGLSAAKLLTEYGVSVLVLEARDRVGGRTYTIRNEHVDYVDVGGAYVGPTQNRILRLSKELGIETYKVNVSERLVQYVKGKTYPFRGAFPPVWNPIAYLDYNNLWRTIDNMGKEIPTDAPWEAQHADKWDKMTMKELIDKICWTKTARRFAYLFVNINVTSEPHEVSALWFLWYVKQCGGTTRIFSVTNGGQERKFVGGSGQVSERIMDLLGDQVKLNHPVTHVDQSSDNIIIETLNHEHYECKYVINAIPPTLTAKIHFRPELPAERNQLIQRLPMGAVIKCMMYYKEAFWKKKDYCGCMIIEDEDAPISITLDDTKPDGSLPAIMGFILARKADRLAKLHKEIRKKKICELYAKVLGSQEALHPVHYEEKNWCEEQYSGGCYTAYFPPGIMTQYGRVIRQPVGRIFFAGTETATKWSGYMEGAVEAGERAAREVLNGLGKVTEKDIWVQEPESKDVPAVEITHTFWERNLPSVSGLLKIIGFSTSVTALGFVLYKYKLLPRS

[2] = target: T2, Amine oxidase [flavin-containing] B (Homo sapiens, UniProt P27338); assay: Inhibition of recombinant human MAO-B expressed in baculovirus infected BTI insect cells using p-tyramine as substrate preincubated for 60 mins followed by substrate addition and measured after 30 mins by horse-radish peroxidase-coupled amplex red reagent-based fluorescence spectrophotometric method
T2 sequence (P27338 whole entry): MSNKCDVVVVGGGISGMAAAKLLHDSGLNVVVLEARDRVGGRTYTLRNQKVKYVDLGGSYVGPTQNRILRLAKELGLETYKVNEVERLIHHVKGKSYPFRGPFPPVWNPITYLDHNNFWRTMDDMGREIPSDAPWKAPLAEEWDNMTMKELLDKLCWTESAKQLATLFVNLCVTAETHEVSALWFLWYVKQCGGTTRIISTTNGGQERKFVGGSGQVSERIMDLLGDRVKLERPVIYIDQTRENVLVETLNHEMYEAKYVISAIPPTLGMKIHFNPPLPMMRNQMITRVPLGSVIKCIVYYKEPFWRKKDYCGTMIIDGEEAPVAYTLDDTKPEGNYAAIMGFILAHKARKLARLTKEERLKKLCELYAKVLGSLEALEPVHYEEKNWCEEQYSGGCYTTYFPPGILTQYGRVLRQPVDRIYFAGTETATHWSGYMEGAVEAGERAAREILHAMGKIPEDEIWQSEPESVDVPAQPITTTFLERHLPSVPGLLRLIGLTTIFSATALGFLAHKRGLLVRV

[3] = Anti-neuroinflammatory activity in […] cells assessed as inhibition of LPS-induced NO production preincubated for 1 hr followed by LPS stimulation measured after 24 hrs by Griess reagent based assay; format: functional, cell-based; settings: BV-2
SH-SY5Y [4] = assay: Neuroprotection against H2O2-induced cell death in human SH-SY5Y cells assessed as increase in cell viability preincubated for 1 hr followed by H2O2 addition and measured after 24 hrs by MTT assay; format: functional, cell-based
Homo sapiens = species: Homo sapiens; assay: Selectivity index, ratio of IC50 for recombinant human MAO-A expressed in baculovirus infected BTI insect cells to IC50 for recombinant human MAO-B expressed in baculovirus infected BTI insect cells
SH-SY5Y [5] = assay: Neuroprotection against L-glutamic acid-induced cell death in human SH-SY5Y cells assessed as increase in cell viability preincubated for 1 hr followed by L-glutamic acid addition and measured after 24 hrs by MTT assay; format: functional, cell-based
Mus musculus [6] = assay: (§1) Anti-parkinson's activity in MPTP-induced C57BL/6 mouse model of Parkinson's disease assessed as restoration of motor ability by measuring increase in latency to fall at 10 mg/kg, po pretreated for 30 mins followed by MPTP challenge for 7 days and subsequent compound redosing for 5 days measured post-last dose by rotarod test; format: functional, organism-based
Mus musculus [7] = assay: (§2) Anti-neuroinflammatory activity in MPTP-induced C57BL/6 mouse of Parkinson's disease assessed as increase in tyrosine hydroxylase positive cells in substantia nigra at 10 mg/kg, po pretreated for 30 mins followed by MPTP challenge for 7 days and subsequent compound redosing for 5 days measured post-last dose by DAB staining based immunohistochemistry method; format: functional, organism-based
Mus musculus [8] = assay: as §1, with “50” for “10”; format: functional, organism-based
Mus musculus [9] = assay: as §2, with “activity in po dosed MPTP-induced C57BL/6” for “activity in MPTP-induced C57BL/6”, “substantia nigra pretreated for” for “substantia nigra at 10 mg/kg, po pretreated for”; format: functional, organism-based
Mus musculus [10] = assay: Anti-neuroinflammatory activity in po dosed MPTP-induced C57BL/6 mouse model of Parkinson's disease assessed as increase in tyrosine hydroxylase expression in mid brain pretreated for 30 mins followed by MPTP challenge for 7 days and subsequent compound redosing for 5 days measured post-last dose by DAB staining based immunohistochemistry method; format: functional, organism-based
Mus musculus [11] = assay: (§3) Ex vivo Inhibition of MAO-B in mid brain homogenates of MPTP-induced C57BL/6 mouse model of Parkinson's disease at 50 mg/kg, ig using p-tyramine as substrate preincubated for 60 mins followed by substrate addition and measured after 30 mins by horse-radish peroxidase-coupled/amplex red reagent-based fluorescence spectrophotometric method; format: functional, organism-based
Mus musculus [12] = assay: as §3, with “inhibition” for “Inhibition”, “MAO-A” for “MAO-B”; format: functional, organism-based
Mus musculus [13] = assay: Anti-neuroinflammatory activity in C57BL/6 mouse assessed as reduction in MPTP-induced COX2 expression in mid brain at 50 mg/kg, po pretreated for 30 mins followed by MPTP challenge for 7 days and subsequent compound redosing for 5 days measured post-last dose by Western blotting analysis; format: functional, organism-based
Mus musculus [14] = assay: Anti-neuroinflammatory activity in C57BL/6 mouse assessed as reduction in MPTP-induced iNOS expression in mid brain at 50 mg/kg, po pretreated for 30 mins followed by MPTP challenge for 7 days and subsequent compound redosing for 5 days measured post-last dose by Western blotting analysis; format: functional, organism-based
Mus musculus [15] = assay: as §1, with “activity in po dosed MPTP-induced C57BL/6” for “activity in MPTP-induced C57BL/6”, “to fall pretreated for” for “to fall at 10 mg/kg, po pretreated for”; format: functional, organism-based

Structure (SMILES)	IC50 [1]	IC50 [2]	IC50 [3]	EC50 (SH-SY5Y [4])	Ratio IC50 (Homo sapiens)	EC50 (SH-SY5Y [5])	also measured
CN(C)CCC(=O)c1cc2cc(Br)c(O)c(Br)c2oc1=O	> 200 µM	> 200 µM	> 100000 nM	> 100 µM	–	–	–
O=C(CCN1CCN(Cc2ccccc2)CC1)c1cc2ccc(O)cc2oc1=O	108 µM	41.1 µM	3640 nM	1.82 µM	2.63	> 100 µM	–
COc1ccc2cc(C(=O)CCN(C)C)c(=O)oc2c1	7.63 µM	21.1 µM	> 100000 nM	> 100 µM	0.36	–	–
C#CCN(C)[C@H](C)Cc1ccccc1	–	–	–	–	–	–	Activity (Mus musculus [6]): Active; Activity (Mus musculus [7]): Active
O=C(CCN1CCCC1)c1cc2cc(Br)c(O)c(Br)c2oc1=O	155 µM	> 200 µM	> 100000 nM	75.1 µM	–	–	–
Cc1cc(O)cc2oc(=O)c(C(=O)CCN3CCOCC3)cc12	98.5 µM	36 µM	280 nM	> 100 µM	2.74	> 100 µM	–
O=C(CCN1CCCC1)c1cc2ccc(O)cc2oc1=O	> 200 µM	> 200 µM	610 nM	–	–	> 100 µM	–
CN(C)CCC(=O)c1cc2ccc(O)cc2oc1=O	110 µM	71.4 µM	560 nM	–	1.53	> 100 µM	–
Cc1cc(O)cc2oc(=O)c(C(=O)CCN(C)C)cc12	> 200 µM	3.66 µM	220 nM	19.7 µM	> 100	25.7 µM	Activity (Mus musculus [8]): Active; Activity (Mus musculus [9]): Active; Activity (Mus musculus [10]): Active; inhibition (Mus musculus [11]): Active; inhibition (Mus musculus [12]): inactive; Activity (Mus musculus [13]): Active; Activity (Mus musculus [14]): Active; Activity (Mus musculus [15]): Dose-dependent effect
COc1cc(/C=C/C(=O)CC(=O)/C=C/c2ccc(O)c(OC)c2)ccc1O [CURCUMIN]	–	–	1580 nM	–	–	–	–
COc1ccc2cc(C(=O)CCN3CCOCC3)c(=O)oc2c1	2.46 µM	4.62 µM	8610 nM	–	0.53	> 100 µM	–
O=C(CCN1CCOCC1)c1cc2cc(Br)c(O)c(Br)c2oc1=O	34.1 µM	14.1 µM	24600 nM	> 100 µM	2.42	–	–
Cc1cc(O)cc2oc(=O)c(C(=O)CCN3CCCC3)cc12	173 µM	43.7 µM	> 100000 nM	–	3.97	> 100 µM	–
Cc1cc(O)cc2oc(=O)c(C(=O)CCN3CCCCC3)cc12	136 µM	119 µM	110 nM	83.7 µM	1.14	> 100 µM	–
O=C(CCN1CCCCC1)c1cc2ccc(O)cc2oc1=O	> 200 µM	> 200 µM	2130 nM	> 100 µM	–	45.4 µM	–
COc1ccc2cc(C(=O)CCN3CCCC3)c(=O)oc2c1	53.1 µM	18.1 µM	> 100000 nM	> 100 µM	2.93	–	–
CCN(CC)CCC(=O)c1cc2ccc(O)cc2oc1=O	89.9 µM	94 µM	2670 nM	–	0.96	13 µM	–
O=C(CCN1CCOCC1)c1cc2ccc(O)cc2oc1=O	111 µM	151 µM	10 nM	> 100 µM	0.73	22.9 µM	–
COc1ccc2cc(C(=O)CCN3CCCCC3)c(=O)oc2c1	12.2 µM	20.1 µM	20 nM	> 100 µM	0.61	–	–
